Experimental data reported in patent publication US8785462B2, “5-hydroxypyrimidine-4-carboxamide derivative” (Daiichi Sankyo Company, Limited, priority 2009, dated 2014).

The compounds below were run on human liver cancer-derived cell line Hep3B (assay: In vitro erythropoietin (EPO) induction activity in Hep3B cells (human EPO ELISA of culture supernatant)). Settings: test compound 12.5 μM, Hep3B cells cultured 24 hours at 37° C., multiple of the EPO concentration in the control (0.5% DMSO = 1).
Type: cell-based
Procedure: In vitro erythropoietin (EPO) induction activity of test compounds was evaluated using human liver cancer-derived cell line Hep3B (ATCC, Manassas, Va.). Hep3B cells were cultured overnight at 37° C. in Dulbecco's modified Eagle's medium (DMEM) in the presence of 10% fetal bovine serum (FBS) (24-well plate, 1.0×10^5 cells/well). After replacing with fresh DMEM (+10% FBS) containing a test compound dissolved in 0.5% dimethyl sulfoxide (DMSO) (prepared to a concentration of 12.5 μM) or a solvent control (0.5% DMSO), the cells were cultured for 24 hours at 37° C. After recovering the culture supernatant, EPO concentration in the culture supernatant was quantified using a human EPO ELISA kit (StemCell Technologies).
The EPO concentration in the case of using a compound of each example as a test compound was expressed as a multiple of the EPO concentration in the control.

Q: `Cc1nc(CC2CCN(c3ccc(-c4ccc(CO)cc4)cc3)CC2)nc(C(=O)NCC(=O)O)c1O` [Example 1, ({[5-Hydroxy-2-{(1-[4′-(hydroxymethyl)biphenyl-4-yl]piperidin-4-yl}methyl)-6-methylpyrimidin-4-yl]carbonyl}amino)acetic acid] was tested. Which fold induction at 12.5 µM did it give?
A: 55

Q: How did the fold induction at 12.5 µM turn out when `Cc1nc(CC2CCN(c3ccc(-c4ccc(C(C)O)cc4)cc3)CC2)nc(C(=O)NCC(=O)O)c1O` (stereo not drawn) [Example 3, ({[5-Hydroxy-2-{(1-[4′-(1-hydroxyethyl)biphenyl-4-yl]piperidin-4-yl}methyl)-6-methylpyrimidin-4-yl]carbonyl}amino)acetic acid] was run?
A: 24

Q: Which fold induction at 12.5 µM does the source give for `Cc1nc(CC2CCN(c3ccc(-c4ccc(CCO)cc4)cc3)CC2)nc(C(=O)NCC(=O)O)c1O` [Example 4, ({[5-Hydroxy-2-({1-[4′-(2-hydroxyethyl)biphenyl-4-yl]piperidin-4-yl}methyl)-6-methylpyrimidin-4-yl]carbonyl}amino)acetic acid] here?
A: 73

Q: `Cc1nc(CC2CCN(c3ccc(-c4ccc(CC(C)O)cc4)cc3)CC2)nc(C(=O)NCC(=O)O)c1O` (stereo not drawn) [Example 5, ({[5-Hydroxy-2-{(1-[4′-(2-hydroxypropyl)biphenyl-4-yl]piperidin-4-yl}methyl)-6-methylpyrimidin-4-yl]carbonyl}amino)acetic acid] was tested. Which fold induction at 12.5 µM did it give?
A: 48

Q: `Cc1nc(CC2CCN(c3ccc(-c4ccc(C(C)(C)CO)cc4)cc3)CC2)nc(C(=O)NCC(=O)O)c1O` [Example 6, ({[5-Hydroxy-2-{(1-[4′-(2-hydroxy-1,1-dimethylethyl)biphenyl-4-yl]piperidin-4-yl}methyl)-6-methylpyrimidin-4-yl]carbonyl}amino)acetic acid] was tested. Which fold induction at 12.5 µM did it give?
A: 36

Q: Which fold induction at 12.5 µM does the source give for `Cc1nc(CC2CCN(c3ccc(-c4ccc(C(=O)N(C)C)cc4)cc3)CC2)nc(C(=O)NCC(=O)O)c1O` [Example 7, ({[2-{(1-[4′-(Dimethylcarbamoyl)biphenyl-4-yl]piperidin-4-yl}methyl)-5-hydroxy-6-methylpyrimidin-4-yl]carbonyl}amino)acetic acid] here?
A: 50

Q: For `CNC(=O)c1ccc(-c2ccc(N3CCC(Cc4nc(C)c(O)c(C(=O)NCC(=O)O)n4)CC3)cc2)cc1` [Example 8, ({[5-Hydroxy-6-methyl-2-{(1-[4′-(methylcarbamoyl)biphenyl-4-yl]piperidin-4-yl}methyl)pyrimidin-4-yl]carbonyl}amino)acetic acid], which fold induction at 12.5 µM is on record?
A: 94

Q: Which fold induction at 12.5 µM does the source give for `Cc1nc(CC2CCN(c3ccc(-c4ccc(CC(=O)N(C)C)cc4)cc3)CC2)nc(C(=O)NCC(=O)O)c1O` [Example 9, [({2-[(1-{4′-[2-(Dimethylamino)-2-oxoethyl]biphenyl-4-yl}piperidin-4-yl)methyl]-5-hydroxy-6-methylpyrimidin-4-yl}carbonyl)amino]acetic acid] here?
A: 36

Q: `CCOC(=O)c1ccc(-c2ccc(N3CCC(Cc4nc(C)c(O)c(C(=O)NCC(=O)O)n4)CC3)cc2)nc1` [Example 16, [({2-[(1-{4-[5-(Ethoxycarbonyl)pyridin-2-yl]phenyl}piperidin-4-yl)methyl]-5-hydroxy-6-methylpyrimidin-4-yl}carbonyl)amino]acetic acid] was tested. Which fold induction at 12.5 µM did it give?
A: 47

Q: How did the fold induction at 12.5 µM turn out when `Cc1nc(CC2CCN(c3ccc(-c4ccc(CC(C)O)cc4)cn3)CC2)nc(C(=O)NCC(=O)O)c1O` (stereo not drawn) [Example 20, [({5-Hydroxy-2-[(1-{5-[4-(2-hydroxypropyl)phenyl]pyridin-2-yl}piperidin-4-yl)methyl]-6-methylpyrimidin-4-yl}carbonyl)amino]acetic acid] was run?
A: 11

Q: For `Cc1nc(CC2CCN(c3ccc(-c4ccc(CO)c(Cl)c4)cc3)CC2)nc(C(=O)NCC(=O)O)c1O` [Example 24, ({[2-{(1-[3′-Chloro-4′-(hydroxymethyl)biphenyl-4-yl]piperidin-4-yl}methyl)-5-hydroxy-6-methylpyrimidin-4-yl]carbonyl}amino)acetic acid], which fold induction at 12.5 µM is on record?
A: 30

Q: How did the fold induction at 12.5 µM turn out when `Cc1cc(CO)ccc1-c1ccc(N2CCC(Cc3nc(C)c(O)c(C(=O)NCC(=O)O)n3)CC2)cc1` [Example 25, ({[5-Hydroxy-2-{(1-[4′-(hydroxymethyl)-2′-methylbiphenyl-4-yl]piperidin-4-yl}methyl)-6-methylpyrimidin-4-yl]carbonyl}amino)acetic acid] was run?
A: 22

Q: `Cc1cc(-c2ccc(N3CCC(Cc4nc(C)c(O)c(C(=O)NCC(=O)O)n4)CC3)cc2C)ccc1CO` [Example 26, ({[5-Hydroxy-2-({1-[4′-(hydroxymethyl)-2,3′-dimethylbiphenyl-4-yl]piperidin-4-yl}methyl)-6-methylpyrimidin-4-yl]carbonyl}amino)acetic acid] was tested. Which fold induction at 12.5 µM did it give?
A: 13

Q: Which fold induction at 12.5 µM does the source give for `CCC(O)Cc1ccc(-c2ccc(N3CCC(Cc4nc(C)c(O)c(C(=O)NCC(=O)O)n4)CC3)cc2)cc1` (stereo not drawn) [Example 27, ({[5-Hydroxy-2-{(1-[4′-(2-hydroxybutyl)biphenyl-4-yl]piperidin-4-yl}methyl)-6-methylpyrimidin-4-yl]carbonyl}amino)acetic acid] here?
A: 30

Q: For `Cc1nc(CC2CCN(c3ccc(-c4ccc(C(F)(F)CO)cc4)cc3)CC2)nc(C(=O)NCC(=O)O)c1O` [Example 30, ({[2-{(1-[4′-(1,1-Difluoro-2-hydroxyethyl)biphenyl-4-yl]piperidin-4-yl}methyl)-5-hydroxy-6-methylpyrimidin-4-yl]carbonyl}amino)acetic acid], which fold induction at 12.5 µM is on record?
A: 23

Q: With `COCc1ccc(-c2ccc(N3CCC(Cc4nc(C)c(O)c(C(=O)NCC(=O)O)n4)CC3)cc2)cc1` [Example 35, ({[5-Hydroxy-2-{(1-[4′-(methoxymethyl)biphenyl-4-yl]piperidin-4-yl}methyl)-6-methylpyrimidin-4-yl]carbonyl}amino)acetic acid] as the compound, how does the fold induction at 12.5 µM read?
A: 53

Q: How did the fold induction at 12.5 µM turn out when `Cc1nc(CC2CCN(c3ccc(-c4ccc(CO)cc4F)cc3)CC2)nc(C(=O)NCC(=O)O)c1O` [Example 36, ({[2-{(1-[2′-Fluoro-4′-(hydroxymethyl)biphenyl-4-yl]piperidin-4-yl}methyl)-5-hydroxy-6-methylpyrimidin-4-yl]carbonyl}amino)acetic acid] was run?
A: 25

Q: Which fold induction at 12.5 µM does the source give for `Cc1nc(CC2CCN(c3ccc(-c4ccc(CO)c(F)c4)cc3)CC2)nc(C(=O)NCC(=O)O)c1O` [Example 37, ({[2-({1-[3′-Fluoro-4′-(hydroxymethyl)biphenyl-4-yl]piperidin-4-yl}methyl)-5-hydroxy-6-methylpyrimidin-4-yl]carbonyl}amino)acetic acid] here?
A: 31

Q: How did the fold induction at 12.5 µM turn out when `Cc1nc(CC2CCN(c3ccc(-c4ccc(CO)cc4)c(F)c3)CC2)nc(C(=O)NCC(=O)O)c1O` [Example 38, ({[2-({1-[2-Fluoro-4′-(hydroxymethyl)biphenyl-4-yl]piperidin-4-yl}methyl)-5-hydroxy-6-methylpyrimidin-4-yl]carbonyl}amino)acetic acid] was run?
A: 24

Q: `Cc1nc(CC2CCN(c3ccc(-c4ccc(CO)cc4)cc3F)CC2)nc(C(=O)NCC(=O)O)c1O` [Example 39, ({[2-{(1-[3-Fluoro-4′-(hydroxymethyl)biphenyl-4-yl]piperidin-4-yl}methyl)-5-hydroxy-6-methylpyrimidin-4-yl]carbonyl}amino)acetic acid] was tested. Which fold induction at 12.5 µM did it give?
A: 18

Q: Which fold induction at 12.5 µM does the source give for `Cc1cc(-c2ccc(N3CCC(Cc4nc(C)c(O)c(C(=O)NCC(=O)O)n4)CC3)cc2)ccc1CO` [Example 40, ({[5-Hydroxy-2-({1-[4′-(hydroxymethyl)-3′-methylbiphenyl-4-yl]piperidin-4-yl}methyl)-6-methylpyrimidin-4-yl]carbonyl}amino)acetic acid] here?
A: 25

Q: `Cc1nc(CC2CCN(c3ccc(-c4cc(F)c(CO)c(F)c4)cc3)CC2)nc(C(=O)NCC(=O)O)c1O` [Example 41, ({[2-({1-[3′,5′-Difluoro-4′-(hydroxymethyl)biphenyl-4-yl]piperidin-4-yl}methyl)-5-hydroxy-6-methylpyrimidin-4-yl]carbonyl}amino)acetic acid] was tested. Which fold induction at 12.5 µM did it give?
A: 20

Q: With `Cc1nc(CC2CCN(c3ccc(-c4cc(Cl)c(CO)c(Cl)c4)cc3)CC2)nc(C(=O)NCC(=O)O)c1O` [Example 42, ({[2-{(1-[3′,5′-Dichloro-4′-(hydroxymethyl)biphenyl-4-yl]piperidin-4-yl}methyl)-5-hydroxy-6-methylpyrimidin-4-yl]carbonyl}amino)acetic acid] as the compound, how does the fold induction at 12.5 µM read?
A: 28

Q: `[2H]C([2H])(O)c1ccc(-c2ccc(N3CCC(Cc4nc(C)c(O)c(C(=O)NCC(=O)O)n4)CC3)cc2)cc1` [Example 44, ({[5-Hydroxy-2-{(1-[4′-(hydroxymethyl)biphenyl-4-yl]piperidin-4-yl}methyl)-6-methylpyrimidin-4-yl]carbonyl}amino)acetic acid-d2] was tested. Which fold induction at 12.5 µM did it give?
A: 26

Q: `Cc1nc(CC2CCN(c3ccc(-c4ccc(C[C@H](C)O)cc4)cc3)CC2)nc(C(=O)NCC(=O)O)c1O` [Example 45, [({5-Hydroxy-2-[(1-{4′-[(2S)-2-hydroxypropyl]biphenyl-4-yl}piperidin-4-yl)methyl]-6-methylpyrimidin-4-yl}carbonyl)amino]acetic acid] was tested. Which fold induction at 12.5 µM did it give?
A: 41

Q: How did the fold induction at 12.5 µM turn out when `Cc1nc(CC2CCN(c3ccc(-c4ccc(C[C@@H](C)O)cc4)cc3)CC2)nc(C(=O)NCC(=O)O)c1O` [Example 46, [({5-Hydroxy-2-[(1-{4′-[(2R)-2-hydroxypropyl]biphenyl-4-yl}piperidin-4-yl)methyl]-6-methylpyrimidin-4-yl}carbonyl)amino]acetic acid] was run?
A: 45

Q: How did the fold induction at 12.5 µM turn out when `CC[C@H](O)Cc1ccc(-c2ccc(N3CCC(Cc4nc(C)c(O)c(C(=O)NCC(=O)O)n4)CC3)cc2)cc1` [Example 47, [({5-Hydroxy-2-[(1-{4′-[(2S)-2-hydroxybutyl]biphenyl-4-yl}piperidin-4-yl)methyl]-6-methylpyrimidin-4-yl}carbonyl)amino]acetic acid] was run?
A: 34
